Data: patent US9974755B2, “Induced expression of brain derived neurotrophic factor (BDNF) for treatment of neuromuscular, neurodegenerative, autoimmune, developmental and/or metabolic diseases” (Mitochon Pharmaceuticals, Inc., priority 2015, dated 2018)
Entries after “also recorded” stand apart in the source; their conditions may differ.

Assays:
Mecp2 mutant mice [1] = test: Clasping test in Mecp2 mutant mice; type: in vivo, mouse; settings: 1 mg/kg, 12-weeks of age, 1-month oral gavage, FIG. 4
Experimental: (§1) MP101 was tested in a model of Rett Syndrome using Mecp2 mutant mice. Rett Syndrome is a developmental disorder in young girls, with first symptoms starting at about 18-months of age, including reduced head growth. FIGS. 3a, 3b, 3c and 4 show the effects of treating these mutant mice with MP101 at 0.5, 1 mg/kg and 5 mg/kg by oral gavage.

[2] = test system: Experimental Autoimmune Encephalomyelitis (EAE); test: Clinical scores in the EAE mouse model of MS; type: in vivo; settings: FIG. 2c
BDNF [3] = test: BDNF protein levels by immunoblot in the EAE mouse model of MS; type: in vivo; settings: for Intensity of the BDNF band (immunoblot): lumbal spinal cord, Day 42, treated Day 7 to Day 21, FIG. 2a
Description: The tissue was taken on Day 42 of the study during the recovery phase from the lumbal spinal cord of representative mice that were immunized on Day 1 with the MOG peptide, then treated with MP101 starting on Day 7 and stopping on Day 21. […] Untreated animals are shown as naïve. The changes in BDNF levels are therefore 3-weeks post-treatment with DNP (aka MP101).

SIRT3 KO mice = test: 6-OHDA dopaminergic degeneration, rotarod in SIRT3 KO mice (Parkinson's); type: in vivo, mouse; settings: 14-Days oral gavage, 6-OHDA in right striatum, FIG. 7b
Experimental: (§2) The merits of treating Parkinson's Disease with MP101 (DNP) was evaluated in wildtype mice and SIRT3 KO mice with 6-OHDA injections after two weeks of MP101 treatment. We examined the neuroprotective effects of varying MP-101 doses (0.5, 1, 5 mg/kg) against dopaminergic degeneration of nigrostriatal neurons induced by a single unilateral stereotaxic injection of neurotoxin 6-hydroxydopamine (6-OHDA) in the right striatum of the brain of 2-3 month old male C57Bl/6 mice or SIRT3 KO mice. SIRT3 KO is a model of a heightened sensitivity to glutamate-induced calcium overload and excitotoxicity, and oxidative and mitochondrial stress, therefore ideal for evaluating Parkinson's Disease, Huntington's Disease and temporal lobe epilepsy.
(§3) FIGS. 7a and 7b show the effects of DNP (MP101) treatment for 14-Days by oral gavage in protecting dopaminergic neuronal loss when the right striatum is injected with 6-OHDA after the last day.

N171-82Q HD mice [4] = test: Neuronal biomarkers DARPP32 and PSD95 in N171-82Q HD mice; type: in vivo, mouse
Experimental: (§4) MP101 (DNP) was used in a mouse model of Huntington's Disease, the “Fragment Model” N171-82 HD mice, to determine its neuroprotective effects. The N171-82 HD mice were treated with MP101 at 0.5, 1 and 5 mg/kg by oral gavage daily for greater than 17-weeks. At the age of 26-weeks (17-weeks of treatment), the mice were tested for changes in behavioral, loss of brain volume, spiny neurons and general neurons. FIGS. 8a, 8b, 8c, 8d, 8e, and 8f show the effects of DNP (MP101 drug treatment).
(§5) FIGS. 8a-8f show the effects of MP101 in the Huntington's Disease model N171-82Q after 13-weeks (age 22 weeks) and/or 17-weeks (age 26-weeks) of treatment with DNP.

N171-82Q HD mice [5] = test: MRI brain volume in N171-82Q Huntington's Disease mice; type: in vivo, mouse; settings: N171-82Q HD mice vs HD placebo
Experimental: as §4, §5

N171-82Q HD mice [6] = test: Tapered beam and balance beam motor function in N171-82Q HD mice; type: in vivo, mouse; settings: after 17-weeks of treatment, FIG. 8f
Experimental: as §4, §5

wildtype mice = test: Kanic acid model of epilepsy, seizure time; type: in vivo, mouse; settings: FIG. 6
Experimental: DNP was also evaluated for a treatment of Epilepsy. The kanic acid model is an acute model of epilepsy caused by an injection in the right hippocampus of an analogue of glutamate (kanic acid) that over-stimulates the neurons causing death.

[7] = acute single dose post-ischemia; cited from earlier work
BDNF [8] = test: BDNF mRNA in brain by semi quantitative PCR after two weeks daily oral gavage; type: in vivo, Wildtype C57BL/6J mice; settings: FIG. 1
Experimental: As described herein below, mitochondrial uncoupler DNP was tested in a range of doses in mice from 0.5 mg/kg of DNP to 10 mg/kg of DNP under oral chronic treatment to titrate the amount of drug in the brain required to induce increases of BDNF endogenously within the brain. […] Therefore, it was discovered that there is a specific and limited dose range of DNP that is necessary to achieve statistically significant survival and behavioral benefit for a host of diseases that benefit from increased BDNF levels. […]

Mecp2 mutant mice [9] = test: Rotarod in Mecp2 mutant mice, a model of Rett Syndrome; type: in vivo, mouse; settings: 8-weeks of age; 0.5, 1 and 5 mg/kg oral gavage vs mutant vehicle; FIG. 3a
Experimental: as §1
In FIGS. 3a and 3b, Mecp2 mutant mice, a model of Rett Syndrome, were treated with MP101 (DNP) at 6-weeks of age and tested on their coordination to walk on a rotating cylinder (rotarod). Wildtype mice are used as a benchmark for general decline in behavior compared to Mecp2 mutant mice treated with Vehicle, 0.5 mg/kg MP101, 1 mg/kg MP101 and 5 mg/kg MP101 by oral gavage.

APP/PS1 mice = test: Morris Water Maze in APP/PS1 mice (Alzheimer's); type: in vivo, mouse; settings: 0.5, 1 and 5 mg/kg oral gavage for 4-months vs Vehicle, FIGS. 5a-5c
Experimental: In addition, Alzheimer's Disease, representing about 70% of all dementia cases, was evaluated using the APP/PS1 mice, which express the APPswe mutation and PS1deltaE9 mutation and develop relatively rapid Aβ pathology and cognitive deficits. At 4-months of age, the APP/PS1 mice were treated for 4-months by oral gavage delivery with MP101 (DNP) at 0.5, 1 and 5 mg/kg. […] The amount of time spent in the quadrant is an indicator of whether the mice remember the general location, with increased time indicating increased memory.
The amount of time spent in the quadrant is an indicator of whether the subject remembers the general location.

[10] = test system: Experimental Autoimmune Encephalomyelitis (EAE); test: Spinal cord electron microscopy in the EAE mouse model of MS; type: in vivo; settings: 5 mg/kg, Day-16 (peak of onset), vs placebo, FIG. 2d
C57Bl/6 mice = test: 6-OHDA dopaminergic degeneration, cylinder test in wildtype mice (Parkinson's); type: in vivo, mouse
Experimental: as §2, §3

Question: Which Clasping test (Mecp2 mutant mice [1]) does the source give for O=[N+]([O-])c1ccc(O)c([N+](=O)[O-])c1 [DNP, 2,4-dinitrophenol] here?
Answer: Its Clasping test is “shows an effect”.

Question: And the “Progression of the phenotype on clinical scores” value [2]?
Answer: Its value is “attenuation of disease progression”.

Question: What about the “Intensity of the BDNF band (immunoblot)” value (BDNF [3]; 0.5 mg/kg and 1 mg/kg vs placebo) of the same compound?
Answer: Its value is “increases”.

Question: What about the “Intensity of the BDNF band (immunoblot)” value (BDNF [3]; 5 mg/kg) of the same compound?
Answer: The value was “plateau effect”.

Question: And the “BDNF protein level 3-weeks post treatment” value (BDNF [3]; EAE model, after 2 weeks of treatment, FIG. 2b)?
Answer: The value was “statistically elevated level of BDNF protein; also recorded: BDNF levels are elevated in the brain; also recorded: lasting effect”.

Question: And the “Motor coordination on rotating cylinder (rotarod)” value (SIRT3 KO mice)?
Answer: Its value is “improved motor coordination”.

Question: What about the “Medium spiny neurons, biomarker DARPP32” value (N171-82Q HD mice [4]; 26-weeks of age, FIG. 8d) of the same compound?
Answer: Its value is “preserves medium spiny neurons”.

Question: What about the “General neuronal loss, postsynaptic protein PSD95 levels” value (N171-82Q HD mice [4]; N171-82Q HD mice, FIG. 8e) of the same compound?
Answer: The value was “preserves general neuronal loss”.

Question: What about the “Brain volume loss in the cortex (MRI)” value (N171-82Q HD mice [5]; FIG. 8b) of the same compound?
Answer: Its value is “minor loss”.

Question: What about the “Brain volume loss in the striatum (MRI)” value (N171-82Q HD mice [5]; FIG. 8c) of the same compound?
Answer: Its value is “minor loss”.

Question: What about the “Motor function in the balance beam” value (N171-82Q HD mice [6]) of the same compound?
Answer: Its value is “improves motor function”.

Question: And the “Motor function in the tapered beam” value (N171-82Q HD mice [6])?
Answer: Its value is “improves motor function”.

Question: What about the “Seizure time after kanic acid injection” value (wildtype mice; 1, 5 and 10 mg/kg oral gavage for 2-weeks before injection) of the same compound?
Answer: The value was “shortening of seizure time”.

Question: And the “Neural protection from over-stimulation by kanic acid” value (wildtype mice; 1, 5 and 10 mg/kg oral gavage for 2-weeks, relative to Vehicle)?
Answer: The value was “provided neural protection”.

Question: And the Infarct volume [7]?
Answer: Its Infarct volume is “reduce infarct volume”.

Question: And the ROSs species [7]?
Answer: Its ROSs species is “lower ROSs species”.

Question: What about the “BDNF levels in the brain at the highest dose compared with lower doses” value (BDNF [8]; 10.0 mg/kg daily oral gavage, bell-shaped curve) of the same compound?
Answer: The value was “reduced level of BDNF compared with the next two lower doses; also recorded: less BDNF is expressed”.

Question: And the “BDNF levels in the brain (mRNA, delta-delta CT, percent change relative to placebo)” value (BDNF [8]; 0.5, 1.0, 5.0 and 10.0 mg/kg daily oral gavage)?
Answer: The value was “induce BDNF within the brain; also recorded: increases BDNF levels in the brain”.

Question: And the “Ability to walk on the rotarod” value (Mecp2 mutant mice [9])?
Answer: The value was “fall less and can handle higher speeds of rotation”.

Question: What about the “Cognition / short term memory in Morris Water Maze (distance, time in quadrant, entries)” value (APP/PS1 mice) of the same compound?
Answer: The value was “improved in short term memory”.

Question: And the “Cognition / short term memory in Morris Water Maze (distance, time in quadrant, entries)” value (APP/PS1 mice; listed as MP101)?
Answer: The value was “improved cognition”.

Question: What about the “Myelin sheaths surrounding the axons and axons (electron microscopy)” value [10] of the same compound?
Answer: Its value is “striking axonal protection”.

Question: What about the “Myelin sheaths surrounding the axons and axons (electron microscopy)” value ([10]; listed as MP101) of the same compound?
Answer: The value was “completely intact”.

Question: What about the “Protection of dopaminergic neurons from 6-OHDA” value (C57Bl/6 mice; 0.5, 1, 5 mg/kg for two weeks, C57Bl/6 or SIRT3 KO mice, FIG. 7) of the same compound?
Answer: Its value is “protected the dopaminergic neurons”.

Question: What about the “Percent of left and right paw touches on the wall (cylinder)” value (C57Bl/6 mice; wildtype mice, 14-Days oral gavage, 6-OHDA in right striatum, FIG. 7a) of the same compound?
Answer: Its value is “improved”.
